Measured values published in PubChem BioAssay AID330 (DTP/NCI, 2004).
“And” between values parts separate entries of the source, which are not always exact repeats. Equal values may be shown once. Inconclusive results and toxic doses are left out.

System: P388 leukemia ip, CD2F1 mice, survival T/C
Assay: NCI In Vivo Anticancer Drug Screen. Data for tumor model P388 Leukemia (intraperitoneal) in CD2F1 (CDF1) mice
Settings: endpoint: median survival time, higher = longer survival
Method in brief: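 Mice carrying the transplanted tumor received test compound or vehicle. Survival was recorded in each group, and the value is the treated-group measurement divided by that of the vehicle-treated control group.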

[1] = dose: 60.0 mg/kg/injection, schedule: Q01DX005 (ip), vehicle: Klucel (hydroxypropylcellulose) (HPC)
[2] = dose: 120.0 mg/kg/injection, schedule: Q01DX005 (ip), vehicle: Klucel (hydroxypropylcellulose) (HPC)
[3] = dose: 50.0 mg/kg/injection, schedule: Q01DX009 (ip), vehicle: saline with Tween-80
[4] = dose: 100.0 mg/kg/injection, schedule: Q01DX009 (ip), vehicle: saline with Tween-80
[5] = dose: 200.0 mg/kg/injection, schedule: Q01DX009 (ip), vehicle: saline with Tween-80
[6] = dose: 50.0 mg/kg/injection, schedule: Q01DX005 (ip), vehicle: Klucel (hydroxypropylcellulose) (HPC)
[7] = dose: 100.0 mg/kg/injection, schedule: Q01DX005 (ip), vehicle: Klucel (hydroxypropylcellulose) (HPC)
[8] = dose: 200.0 mg/kg/injection, schedule: Q01DX005 (ip), vehicle: Klucel (hydroxypropylcellulose) (HPC)
[9] = dose: 12.5 mg/kg/injection, schedule: Q01DX009 (ip), vehicle: Klucel (hydroxypropylcellulose) (HPC)
[10] = dose: 25.0 mg/kg/injection, schedule: Q01DX009 (ip), vehicle: Klucel (hydroxypropylcellulose) (HPC)
[11] = dose: 50.0 mg/kg/injection, schedule: Q01DX009 (ip), vehicle: Klucel (hydroxypropylcellulose) (HPC)
[12] = dose: 100.0 mg/kg/injection, schedule: Q01DX009 (ip), vehicle: Klucel (hydroxypropylcellulose) (HPC)
[13] = dose: 60.0 mg/kg/injection, schedule: Q01DX005 (ip), vehicle: saline with Tween-80
[14] = dose: 120.0 mg/kg/injection, schedule: Q01DX005 (ip), vehicle: saline with Tween-80
[15] = dose: 240.0 mg/kg/injection, schedule: Q01DX005 (ip), vehicle: saline with Tween-80
[16] = dose: 50.0 mg/kg/injection, schedule: Q01DX005 (ip), vehicle: distilled water + alcohol
[17] = dose: 100.0 mg/kg/injection, schedule: Q01DX005 (ip), vehicle: distilled water + alcohol
[18] = dose: 200.0 mg/kg/injection, schedule: Q01DX005 (ip), vehicle: distilled water + alcohol
[19] = dose: 15.0 mg/kg/injection, schedule: Q01DX005 (ip), vehicle: Klucel (hydroxypropylcellulose) (HPC)

CCCS(=O)[O-].CCCS(=O)[O-].[Zn+2]
T/C (dose: 0.05 mg/kg/injection, schedule: Q01DX009 (ip), vehicle: saline): 103 % of control
T/C (dose: 0.1 mg/kg/injection, schedule: Q01DX009 (ip), vehicle: saline): 107 % of control
T/C (dose: 0.2 mg/kg/injection, schedule: Q01DX009 (ip), vehicle: saline): 108 % of control
T/C (dose: 0.4 mg/kg/injection, schedule: Q01DX009 (ip), vehicle: saline): 99 % of control
T/C (dose: 0.8 mg/kg/injection, schedule: Q01DX009 (ip), vehicle: saline): 107 % of control
T/C (dose: 1.6 mg/kg/injection, schedule: Q01DX009 (ip), vehicle: saline): 108 % of control
T/C (dose: 3.2 mg/kg/injection, schedule: Q01DX009 (ip), vehicle: saline): 101 % of control
T/C (dose: 6.4 mg/kg/injection, schedule: Q01DX009 (ip), vehicle: saline): 100 % of control
T/C (dose: 12.8 mg/kg/injection, schedule: Q01DX009 (ip), vehicle: saline): 100 % of control

CCOC(=O)c1ccc(N)[n+](C2OC(COC(=O)c3ccccc3)C(OC(=O)c3ccccc3)C2OC(=O)c2ccccc2)c1 (centres undefined)
T/C (dose: 50.0 mg/kg/injection, schedule: Q01DX005 (ip), vehicle: saline with Tween-80): 92 % of control
T/C (dose: 100.0 mg/kg/injection, schedule: Q01DX005 (ip), vehicle: saline with Tween-80): 107 % of control
T/C (dose: 200.0 mg/kg/injection, schedule: Q01DX005 (ip), vehicle: saline with Tween-80): 112 % of control

COC(=O)C1(CC(=O)c2c(C)[nH]c3ccccc23)NC(=S)NC(=O)C1C#N (centres undefined)
T/C [1]: 100 % of control
T/C [2]: 100 % of control
T/C (dose: 240.0 mg/kg/injection, schedule: Q01DX005 (ip), vehicle: Klucel (hydroxypropylcellulose) (HPC)): 100 % of control

C[N+](C)(C)/N=C(\[O-])Nc1ccccc1
T/C [3]: 100 % of control
T/C [4]: 104 % of control
T/C [5]: 89 % of control

O=C1c2ccccc2-c2c(NC(=O)C(Cl)Cl)cccc21
T/C [6]: 87 % of control
T/C [7]: 86 % of control
T/C [8]: 86 % of control

CC(=O)O[C@H]1[C@H]2O[C@]23[C@@H]2CC[C@]4(O)C[C@@H](O)CC[C@]4(C)[C@H]2CC[C@]3(C)[C@H]1c1ccc(=O)oc1
T/C [9]: 114 % of control
T/C [10]: 105 % of control
T/C [11]: 105 % of control
T/C [12]: 120 % of control

C/C(=N\[N+](C)(C)C)c1ccccc1
T/C (dose: 12.5 mg/kg/injection, schedule: Q04DX003 (ip), vehicle: saline with Tween-80): 100 % of control
T/C (dose: 25.0 mg/kg/injection, schedule: Q04DX003 (ip), vehicle: saline with Tween-80): 100 % of control
T/C (dose: 50.0 mg/kg/injection, schedule: Q04DX003 (ip), vehicle: saline with Tween-80): 102 % of control
T/C (dose: 100.0 mg/kg/injection, schedule: Q04DX003 (ip), vehicle: saline with Tween-80): 100 % of control

COCCOC1=C(N2CC2)C(=O)C(OCCOC)=C(N2CC2)C1=O
T/C (dose: 1.87 mg/kg/injection, schedule: Q01DX009 (ip), vehicle: saline): 204 % of control
T/C (dose: 2.2 mg/kg/injection, schedule: Q04DX003 (ip), vehicle: saline): 113 % of control
T/C (dose: 3.3 mg/kg/injection, schedule: Q04DX003 (ip), vehicle: saline): 122 % of control
T/C (dose: 3.75 mg/kg/injection, schedule: Q01DX009 (ip), vehicle: saline): 118 % of control

CCOP(=O)(NN)OCC
T/C (dose: 25.0 mg/kg/injection, schedule: Q04DX003 (ip), vehicle: saline): 114 % of control
T/C (dose: 50.0 mg/kg/injection, schedule: Q04DX003 (ip), vehicle: saline): 97 % of control
T/C (dose: 100.0 mg/kg/injection, schedule: Q04DX003 (ip), vehicle: saline): 106 % of control
T/C (dose: 200.0 mg/kg/injection, schedule: Q04DX003 (ip), vehicle: saline): 103 % of control

COc1ccc(C(O)c2ncccc2C)cc1OC (centres undefined)
T/C (dose: 12.5 mg/kg/injection, schedule: Q01DX009 (ip), vehicle: water): 102 % of control
T/C (dose: 25.0 mg/kg/injection, schedule: Q01DX009 (ip), vehicle: water): 94 % of control
T/C (dose: 50.0 mg/kg/injection, schedule: Q01DX009 (ip), vehicle: water): 99 % of control
T/C (dose: 100.0 mg/kg/injection, schedule: Q01DX009 (ip), vehicle: water): 100 % of control
T/C (dose: 200.0 mg/kg/injection, schedule: Q01DX009 (ip), vehicle: water): 101 % of control

Oc1cc2c(cc1C(c1ccc(Cl)cc1)N1CCOCC1)OCO2 (centres undefined)
T/C [13]: 102 % of control
T/C [14]: 111 % of control
T/C [15]: 124 % of control

CC(=O)Nc1nc(N)nc(NC(C)=O)c1N=O
T/C [3]: 110 % of control
T/C [4]: 119 % of control
T/C [5]: 117 % of control

CC1=CN2C3=NCCN3C3=[N+](C)CCN3C2C=C1 (centres undefined)
T/C (dose: 12.5 mg/kg/injection, schedule: Q01DX005 (ip), vehicle: saline): 104 % of control
T/C (dose: 25.0 mg/kg/injection, schedule: Q01DX005 (ip), vehicle: saline): 101 % of control
T/C (dose: 50.0 mg/kg/injection, schedule: Q01DX005 (ip), vehicle: saline): 100 % of control and 112 % of control

CCOC(=O)/C(C#N)=N/Nc1ccc2cn[nH]c2c1
T/C [6]: 99 % of control
T/C [7]: 94 % of control
T/C [8]: 97 % of control

CC(c1ccccc1)c1cc(C(C)(C)C)cc(C(C)(C)C)c1O (centres undefined)
T/C [16]: 96 % of control
T/C [17]: 100 % of control
T/C [18]: 99 % of control

N#CC12CCCC(=O)N1c1ccccc1S2 (centres undefined)
T/C [13]: 108 % of control
T/C [14]: 104 % of control
T/C [15]: 95 % of control

CCN(CC)C(=S)S[Se](SC(=S)N(CC)CC)(SC(=S)N(CC)CC)SC(=S)N(CC)CC
T/C [9]: 103 % of control
T/C [10]: 100 % of control
T/C [11]: 97 % of control
T/C [12]: 104 % of control

COc1cc([C@@H]2c3cc4c(cc3[C@H](OC(=O)CCC(=O)O)[C@H]3COC(=O)[C@H]23)OCO4)cc(OC)c1OC
T/C (dose: 6.25 mg/kg/injection, schedule: Q01DX005 (ip), vehicle: saline with Tween-80): 106 % of control
T/C (dose: 12.5 mg/kg/injection, schedule: Q01DX005 (ip), vehicle: saline with Tween-80): 122 % of control
T/C (dose: 25.0 mg/kg/injection, schedule: Q01DX005 (ip), vehicle: saline with Tween-80): 113 % of control

Cc1c([N+](=O)[O-])oc2c1C(=O)c1ccccc1C2=O
T/C [19]: 95 % of control
T/C (dose: 30.0 mg/kg/injection, schedule: Q01DX005 (ip), vehicle: Klucel (hydroxypropylcellulose) (HPC)): 95 % of control
T/C [1]: 95 % of control and 96 % of control
T/C [2]: 102 % of control

CNC(=O)n1nc(C)cc1C
T/C [16]: 108 % of control
T/C [17]: 102 % of control
T/C [18]: 108 % of control

O=C1NNC(=O)C1C(=O)Nc1ccccc1
T/C (dose: 0.93 mg/kg/injection, schedule: Q01DX005 (ip), vehicle: Klucel (hydroxypropylcellulose) (HPC)): 100 % of control
T/C (dose: 1.87 mg/kg/injection, schedule: Q01DX005 (ip), vehicle: Klucel (hydroxypropylcellulose) (HPC)): 103 % of control
T/C (dose: 3.75 mg/kg/injection, schedule: Q01DX005 (ip), vehicle: Klucel (hydroxypropylcellulose) (HPC)): 100 % of control
T/C [19]: 113 % of control

On1cc/c(=N\N=C\c2ccc(N(CCCl)CCCl)cc2)c2ccc(Cl)cc21
T/C [3]: 101 % of control
T/C [4]: 101 % of control
T/C [5]: 94 % of control

O=C1C(Cl)=C(Nc2ccc(C(=O)Nc3ccc4cc(S(=O)(=O)O)cc(S(=O)(=O)O)c4c3)cc2)C(=O)C(Cl)=C1Nc1ccc(C(=O)Nc2ccc3cc(S(=O)(=O)O)cc(S(=O)(=O)O)c3c2)cc1
T/C (dose: 50.0 mg/kg/injection, schedule: Q01DX009 (ip), vehicle: saline): 110 % of control
T/C (dose: 100.0 mg/kg/injection, schedule: Q01DX009 (ip), vehicle: saline): 89 % of control
T/C (dose: 200.0 mg/kg/injection, schedule: Q01DX009 (ip), vehicle: saline): 103 % of control
